From publication PMC3113660 (Journal of medicinal chemistry, 2010)
pIC50: −log10 of the molar value. Counter-ions that a name gives are not always drawn.

Assays:
[1] = tested on: Trypanosoma brucei rhodesiense (STIB900); experiment: In vitro growth inhibition assay of T. brucei rhodesiense; type: cell-based
[2] = tested on: Plasmodium falciparum (K1, resistant to chloroquine); experiment: In vitro growth inhibition assay of P. falciparum; type: cell-based; details: for pIC50: Plasmodium falciparum, K1, read-out: antiplasmodial IC50, P. falciparum, in vitro

Row | SMILES | pIC50 [2] | other results
1 | Cl.Cl.c1cc(C2=NCCN2)cc(-n2cc(-c3ccc(C4=NCCN4)cc3)nn2)c1 [Compound 33, 1-[3-(4,5-Dihydro-1H-imidazol-2-yl)phenyl]-4-[4-(4,5-dihydro-1H-imidazol-2-yl)phenyl]-1H-1,2,3-triazole Dihydrochloride] |  | fold less active against T. brucei rhodesiense ([1]; relative to diamidine 31): 77 fold
2 | Cl.Cl.c1cc(C2=NCCN2)cc(-c2cn(-c3ccc(C4=NCCN4)cc3)nn2)c1 [Compound 18, 1-[4-(4,5-Dihydro-1H-imidazol-2-yl)phenyl]-4-(3-(4,5-dihydro-1H-imidazol-2-yl)phenyl)-1H-1,2,3-triazole Dihydrochloride] |  | fold less active against T. brucei rhodesiense ([1]; relative to diamidine 16): 25 fold
3 | Cl.Cl.N=C(N)c1ccc(-c2cn(-c3ccc(C(=N)N)cc3O)nn2)cc1 [Compound 55, 1-(4-Amidino-2-hydroxyphenyl)-4-(4-amidinophenyl)-1H-1,2,3-triazole Dihydrochloride] |  | fold less active against T. brucei rhodesiense ([1]; relative to dication 46): 125 fold
4 | COc1ccc(C(=N)NC(C)C)cc1-n1cc(-c2ccc(C(=N)NC(C)C)cc2)nn1.Cl.Cl [Compound 35, 1-(5-N-Isopropylamidino-2-methoxyphenyl)-4-(4-N-isopropylamidinophenyl)-1H-1,2,3-triazole Dihydrochloride] |  | fold less active against P. falciparum ([2]; relative to bis(N-isopropyl)amidine 32): 5 fold
5 | COc1cc(C2=NCCN2)ccc1-n1cc(-c2cccc(C3=NCCN3)c2)nn1.Cl.Cl [Compound 21, 1-[4-(4,5-Dihydro-1H-imidazol-2-yl)-2-methoxyphenyl]-4-[3-(4,5-dihydro-1H-imidazol-2-yl)phenyl]-1H-1,2,3-triazole Dihydrochloride] |  | fold less active against T. brucei rhodesiense ([1]; relative to congener 19): 170 fold
6 | Cl.Cl.c1cc(C2=NCCN2)cc(-c2cn(-c3cccc(C4=NCCN4)c3)nn2)c1 [Compound 3, 1,4-Bis[3-(4,5-dihydro-1H-imidazol-2-yl)phenyl]-1H-1,2,3-triazole Dihydrochloride] |  | fold less active against T. brucei rhodesiense ([1]; relative to diamidine 1): ~170 fold
7 | Cl.Cl.Oc1ccc(C2=NCCN2)cc1-n1cc(-c2ccc(C3=NCCN3)cc2)nn1 [Compound 42, 1-[5-(4,5-Dihydro-1H-imidazol-2-yl)-2-hydroxyphenyl]-4-[4-(4,5-dihydro-1H-imidazol-2-yl)phenyl]-1H-1,2,3-triazole Dihydrochloride] |  | fold less active against T. brucei rhodesiense ([1]; relative to diimidazoline 33): 43 fold
8 | CC(C)NC(=N)c1ccc(-n2cc(-c3ccc(C(=N)NC(C)C)cc3O)nn2)cc1.Cl.Cl [Compound 59, 4-(4-N-Isopropylamidino-2-hydroxyphenyl)-1-(4-N-isopropylamidinophenyl)-1H-1,2,3-triazole Dihydrochloride] | > 7.24 | 
9 | Cl.Cl.N=C(N)c1ccc(-c2cn(-c3cc(C(=N)N)ccc3O)nn2)cc1 [Compound 40, 1-(5-Amidino-2-hydroxyphenyl)-4-(4-amidinophenyl)-1H-1,2,3-triazole Dihydrochloride] |  | fold less active against P. falciparum ([2]; relative to congener 31): 308 fold
10 | CC(C)NC(=N)c1cccc(-c2cn(-c3cc(C(=N)NC(C)C)ccc3O)nn2)c1.Cl.Cl [Compound 11, 1-(5-N-Isopropylamidino-2-hydroxyphenyl)-4-(3-N-isopropylamidinophenyl)-1H-1,2,3-triazole Dihydrochloride] |  | fold lower antiplasmodial activity ([2]; relative to congener 2): 7 fold; fold lower antiplasmodial activity ([2]; relative to congener 5): 6 fold
11 | Cl.Cl.Oc1ccc(C2=NCCN2)cc1-c1cn(-c2cccc(C3=NCCN3)c2)nn1 [Compound 15, 4-[5-(4,5-Dihydro-1H-imidazol-2-yl)-2-hydroxyphenyl]-1-[3-(4,5-dihydro-1H-imidazol-2-yl)phenyl]-1H-1,2,3-triazole Dihydrochloride] | > 7.24 | fold more active against P. falciparum ([2]; relative to diimidazoline 3): 7 fold
12 | COc1ccc(C(=N)N)cc1-n1cc(-c2ccc(C(=N)N)cc2)nn1.Cl.Cl [Compound 34, 1-(5-Amidino-2-methoxyphenyl)-4-(4-amidinophenyl)-1H-1,2,3-triazole Dihydrochloride] | > 7.24 | fold less active against P. falciparum ([2]; relative to congener 31): 4 fold
13 | COc1ccc(C2=NCCN2)cc1-c1cn(-c2ccc(C3=NCCN3)cc2)nn1 [Compound 24, 4-[5-(4,5-Dihydro-1H-imidazol-2-yl)-2-methoxyphenyl]-1-[4-(4,5-dihydro-1H-imidazol-2-yl)phenyl]-1H-1,2,3-triazole Dihydrochloride] | > 7.24 | 

Further lines, with some results ahead:

Row | pIC50 [2] | SMILES | other results
14 | > 7.24 | COc1cc(C(=N)NC(C)C)ccc1-c1cn(-c2ccc(C(=N)NC(C)C)cc2)nn1 [Compound 53, 4-(4-N-Isopropylamidino-2-methoxyphenyl)-1-(4-N-isopropylamidinophenyl)-1H-1,2,3-triazole Dihydrochloride] | 
15 | > 7.24 | Oc1cc(C2=NCCN2)ccc1-n1cc(-c2ccc(C3=NCCN3)cc2)nn1 [Compound 57, 1-[4-(4,5-Dihydro-1H-imidazol-2-yl)-2-hydroxyphenyl]-4-[4-(4,5-dihydro-1H-imidazol-2-yl)phenyl]-1H-1,2,3-triazole Dihydrochloride] | 
16 | > 7.24 | COc1cc(C(=N)N)ccc1-n1cc(-c2ccc(C(=N)N)cc2)nn1 [Compound 49, 1-(4-Amidino-2-methoxyphenyl)-4-(4-amidinophenyl)-1H-1,2,3-triazole Dihydrochloride] | 
17 | > 7.24 | CC(C)NC(=N)c1ccc(-n2cc(-c3cc(C(=N)NC(C)C)ccc3O)nn2)cc1 [Compound 29, 4-(5-N-Isopropylamidino-2-hydroxyphenyl)-1-(4-N-isopropylamidinophenyl)-1H-1,2,3-triazole Dihydrochloride] | 
18 | > 7.24 | c1cc(-c2cn(-c3ccc(C4=NCCN4)cc3)nn2)ccc1C1=NCCN1 [Compound 48, 1,4-Bis(4-(4,5-dihydro-1H-imidazol-2-yl)phenyl)-1H-1,2,3-triazole Dihydrochloride] | 
19 | > 7.24 | COc1cc(C2=NCCN2)ccc1-n1cc(-c2ccc(C3=NCCN3)cc2)nn1 [Compound 51, 1-[4-(4,5-Dihydro-1H-imidazol-2-yl)-2-methoxyphenyl]-4-[4-(4,5-dihydro-1H-imidazol-2-yl)phenyl]-1H-1,2,3-triazole Dihydrochloride] | 
20 | > 7.24 | Oc1cc(C2=NCCN2)ccc1-c1cn(-c2cccc(C3=NCCN3)c2)nn1 [Compound 45, 4-[4-(4,5-Dihydro-1H-imidazol-2-yl)-2-hydroxyphenyl]-1-[3-(4,5-dihydro-1H-imidazol-2-yl)phenyl]-1H-1,2,3-triazole Dihydrochloride] | 
21 | > 7.24 | COc1cc(C(=N)NC(C)C)ccc1-n1cc(-c2ccc(C(=N)NC(C)C)cc2)nn1 [Compound 50, 1-(4-N-Isopropylamidino-2-methoxyphenyl)-4-(4-N-isopropylamidinophenyl)-1H-1,2,3-triazole Dihydrochloride] | 
22 | > 7.24 | COc1cc(C2=NCCN2)ccc1-c1cn(-c2ccc(C3=NCCN3)cc2)nn1 [Compound 54, 4-[4-(4,5-Dihydro-1H-imidazol-2-yl)-2-methoxyphenyl]-1-[4-(4,5-dihydro-1H-imidazol-2-yl)phenyl]-1H-1,2,3-triazole Dihydrochloride] | 
23 | > 7.24 | COc1ccc(C2=NCCN2)cc1-n1cc(-c2ccc(C3=NCCN3)cc2)nn1 [Compound 36, 1-[5-(4,5-Dihydro-1H-imidazol-2-yl)-2-methoxyphenyl]-4-[4-(4,5-dihydro-1H-imidazol-2-yl)phenyl]-1H-1,2,3-triazole Dihydrochloride] | 
24 | > 7.24 | CC(C)NC(=N)c1cccc(-n2cc(-c3ccc(C(=N)NC(C)C)cc3O)nn2)c1 [Compound 44, 4-(4-N-Isopropylamidino-2-hydroxyphenyl)-1-(3-N-isopropylamidinophenyl)-1H-1,2,3-triazole Dihydrochloride] | 
